Experimental data: patent US11261201B2 (priority 2018, dated 2022)
Converted amounts (≈) assume the structure as drawn. Where two headings read alike, the source gives them in different places.

Columns and labels:
E. coli = experiment: Gram negative MIC protocol (OD600, LB, 24 h); conditions: Escherichia coli
Procedure: (§1) Overnight bacterial cultures were grown in LB with no added antibiotics at 37° C. with shaking. A 1:1000 dilution of these cultures into LB was exposed to concentration gradients of compounds in 96-well plates (100 μL per well assay volume). Resulting plates were incubated at 37° C. for 24 h without shaking, and OD600 was measured at the end of the incubation. MICs were determined as the lowest concentrations at which OD600 remained at baseline.

A. baumannii = experiment: Gram negative MIC protocol (OD600, LB, 24 h); conditions: Acinetobacter baumannii
Procedure: as §1

H37RvMA = experiment: Tuberculosis Alamar Blue/Resazurin assay (MIC); assay type: cell-based; conditions: Mycobacterium tuberculosis, H37RV, read-out: WT H37Rv MTB Activity
[1] = read-out: MIC E. coli delta-TolC LB Media, E. coli delta-TolC, LB media, OD600
[2] = read-out: MIC WT E. coli LB Media, WT E. coli, LB media, OD600
[3] = read-out: MIC A. baumannii LB Media
[4] = read-out: MIC A. baumannii LB Media, A. baumannii, LB media, 24 h, OD600

Row | Structure (SMILES) | MIC (E. coli; [1]) [µM] | MIC (E. coli; [2]) [µM] | MIC (A. baumannii; [3]) [µM] | MIC (H37RvMA) [µM] | MIC (A. baumannii; [4]) [µM] | MIC (E. coli; read-out: MIC E. coli delta-TolC LB Media) [µM] | MIC (E. coli; read-out: MIC WT E. coli LB Media) [µM] | MIC (H37RvMA; WT H37Rv MTB) [µM]
1 | CC(C)(Cc1ccc(C(F)(F)F)cc1)NCc1ccccc1 [B93] | > 150 | > 150 | > 150 | > 150 |  |  |  | 
2 | C[C@@H](CC1CCCCC1)NCc1ccccc1 [B94] | 7 (≈ 1.62 µg/mL) | 17 (≈ 3.93 µg/mL) | 91 (≈ 21.1 µg/mL) | > 150 |  |  |  | 
3 | C[C@H](CC1CCCCC1)NCc1ccccc1 [B95] | > 150 | > 150 | > 150 | 55 (≈ 12.7 µg/mL) |  |  |  | 
4 | FC(F)(F)c1ccc(CC2(NCc3ccccc3)CC2)cc1 [B96] | 90 (≈ 27.5 µg/mL) | > 150 |  | > 150 | > 150 |  |  | 
5 | Fc1ccc(CC2(NCc3ccccc3)CC2)cc1 [B97] | > 150 | > 150 |  | > 150 | > 150 |  |  | 
6 | CC1(c2ccc(F)cc2)N(Cc2ccccc2)C12CC2 (centres unmarked) [B98] |  |  |  | > 150 | > 150 | 150 (≈ 40.1 µg/mL) | > 150 | 
7 | c1ccc(CNCC2CCCCCC2)cc1 [B99] | > 150 | > 150 |  |  | > 150 |  |  | 55 (≈ 12 µg/mL)
8 | CC1(CNCc2ccccc2)CCCCCC1 [B100] | > 150 | > 150 |  |  | > 150 |  |  | > 150
9 | CC(NCc1ccccc1)C1CCCCCC1 (centres unmarked) [B101] | 40 (≈ 9.26 µg/mL) | 70 (≈ 16.2 µg/mL) |  |  | 150 (≈ 34.7 µg/mL) |  |  | > 150
10 | c1ccc(CNCCC2CCCCCC2)cc1 [B102] | 90 (≈ 20.8 µg/mL) | 120 (≈ 27.8 µg/mL) |  |  | 150 (≈ 34.7 µg/mL) |  |  | 91 (≈ 21.1 µg/mL)
11 | CC(CNCc1ccccc1)C1CCCCC1 (centres unmarked) [B103] | 150 (≈ 34.7 µg/mL) | 150 (≈ 34.7 µg/mL) |  |  | > 150 |  |  | > 150
12 | c1ccc(CNCCC23CC4CC(CC(C4)C2)C3)cc1 [B104] | 91 (≈ 24.5 µg/mL) | > 150 |  |  | > 150 |  |  | 55 (≈ 14.8 µg/mL)
13 | c1ccc(CNCCc2cccc3c2NCCC3)cc1 [B105] | > 150 | > 150 |  |  | > 150 |  |  | 91 (≈ 24.2 µg/mL)
14 | CC(Cc1ccc2ccccc2c1)NCc1ccccc1 (centres unmarked) [B106] | > 150 | > 150 |  | 150 (≈ 41.3 µg/mL) | > 150 |  |  | 
15 | c1ccc(CNCC2CC23CCCc2ccccc23)cc1 (centres unmarked) [B107] | > 150 | > 150 |  |  | > 150 |  |  | > 150
16 | CC1(C)Cc2cccc(CCNCc3ccccc3)c2O1 [B108] | > 150 | > 150 | > 150 | > 150 |  |  |  | 
17 | CC1(C)CCC2(CC2CNCc2ccccc2)c2ccccc21 (centres unmarked) [B109] | 91 (≈ 27.8 µg/mL) | > 150 |  |  | 150 (≈ 45.8 µg/mL) |  |  | 55 (≈ 16.8 µg/mL)
18 | CC(NCc1ccccc1)C1Cc2ccccc21 (centres unmarked) [B110] | > 150 | > 150 |  |  | > 150 |  |  | > 150
19 | COc1ccc(CCNCc2ccccc2)c2ccccc12 [B111] | 150 (≈ 43.7 µg/mL) | > 150 |  |  | 150 (≈ 43.7 µg/mL) |  |  | 33 (≈ 9.62 µg/mL)
20 | COc1ccc2c(c1)CCCC2CNCc1ccccc1 (centres unmarked) [B112] | > 150 | > 150 |  |  | > 150 |  |  | > 150
21 | C[C@H](NCc1ccccc1)C1CCCc2ccccc21 (some centres unmarked) [B113] | > 150 | > 150 |  |  | > 150 |  |  | > 150
22 | c1ccc(CNCCc2ccc3cc[nH]c3c2)cc1 [B114] | > 150 | > 150 | > 150 | > 150 |  |  |  | 
23 | c1ccc(CNCCc2ccc3[nH]ncc3c2)cc1 [B115] | > 150 | > 150 |  |  | > 150 |  |  | > 150
24 | CN1CC2CCC1C(CNCc1ccccc1)C2 (centres unmarked) [B116] | > 150 | > 150 |  | > 150 | > 150 |  |  | 

Row | Structure (SMILES) | MIC (E. coli; [1]) [µM] | MIC (E. coli; [2]) [µM] | MIC (A. baumannii; [3]) [µM] | MIC (H37RvMA) [µM] | MIC (A. baumannii; [4]) [µM] | MIC (E. coli; read-out: MIC E. coli delta-TolC LB Media) [µM] | MIC (E. coli; read-out: MIC WT E. coli LB Media) [µM] | MIC (H37RvMA; WT H37Rv MTB) [µM]
25 | Cc1ccc2ncc(CCNCc3ccccc3)cc2c1 [B117] | > 150 | > 150 |  |  | > 150 |  |  | > 150
26 | c1ccc(CNCCC2CSc3ccccc3O2)cc1 (centres unmarked) [B118] | > 150 | > 150 |  |  | > 150 |  |  | > 150
27 | c1ccc(CNCCc2ccnc3ccccc23)cc1 [B119] | > 150 | > 150 |  |  | > 150 |  |  | > 150
28 | FC1(F)Oc2ccc(CCNCc3ccccc3)cc2O1 [B120] | > 150 | > 150 | > 150 | > 150 |  |  |  | 
29 | c1ccc(CNCCN2CCC3(CCCCC3)CC2)cc1 [B121] | > 150 | > 150 |  |  | > 150 |  |  | > 150
30 | C1=CC2CCC1CC2CNCc1ccccc1 (centres unmarked) [B122] | > 150 | > 150 |  |  | > 150 |  |  | 150 (≈ 34.1 µg/mL)
31 | c1ccc(CNCC2CC3CCC2CC3)cc1 (centres unmarked) [B123] | > 150 | > 150 |  |  | > 150 |  |  | 150 (≈ 34.4 µg/mL)
32 | c1ccc(CNCCN2CCCC3CCCCC32)cc1 (centres unmarked) [B124] | > 150 | > 150 |  |  | > 150 |  |  | > 150
33 | c1ccc(CNC2CC23CCCCC3)cc1 (centres unmarked) [B125] | > 150 | > 150 |  |  | > 150 |  |  | > 150
34 | c1ccc(CNCCN2CCCC3CCCC32)cc1 (centres unmarked) [B126] | > 150 | > 150 |  |  | > 150 |  |  | > 150
35 | c1ccc(CNCC2CCCc3ccccc32)cc1 (centres unmarked) [B127] | > 150 | > 150 |  |  | > 150 |  |  | 150 (≈ 37.7 µg/mL)
36 | c1ccc(CNCCC2CCCC2)cc1 [B128] | > 150 | > 150 |  |  | > 150 |  |  | > 150
37 | c1ccc(CNCCN2CCc3ccccc3C2)cc1 [B129] | > 150 | > 150 |  |  | > 150 |  |  | > 150
38 | CC(CNCc1ccccc1)N1CCc2ccccc2C1 (centres unmarked) [B130] | > 150 | > 150 |  |  | > 150 |  |  | > 150
39 | CCC(CNCc1ccccc1)N1CCc2ccccc2C1 (centres unmarked) [B131] | > 150 | > 150 |  |  | > 150 |  |  | > 150
40 | c1ccc(CNCCC2CCCCC2)cc1 [B132] | 85 (≈ 18.5 µg/mL) | 124 (≈ 27 µg/mL) |  |  | 150 (≈ 32.6 µg/mL) |  |  | > 150
41 | c1ccc(CNCCc2ccc3ccccc3c2)cc1 [B133] | > 150 | > 150 |  |  | > 150 |  |  | 55 (≈ 14.4 µg/mL)
42 | CC(NCc1ccccc1)C1CCCCC1 (centres unmarked) [B134] | > 150 | 120 (≈ 26.1 µg/mL) |  |  | > 150 |  |  | > 150
43 | c1ccc(CNCC2CCC2)cc1 [B135] | > 150 | > 150 |  |  | > 150 |  |  | > 150
44 | CC(C)CNCc1ccccc1 [B136] | > 150 | > 150 |  |  | > 150 |  |  | > 150
45 | Cc1ccc(CNC2CCCCC2)cc1 [B137] | > 150 | > 150 |  |  | > 150 |  |  | > 150
46 | OC(CNCc1ccccc1)c1ccc2ccccc2c1 (centres unmarked) [B138] | > 150 | > 150 |  |  | > 150 |  |  | > 150
47 | CN1CCC(CNCc2ccccc2)c2ccccc21 (centres unmarked) [B139] | > 150 | > 150 |  |  | > 150 |  |  | > 150
